Values of other authors, collected in publication PMC8985968, “Purification and characterization of antifungal lipopeptide produced by Bacillus velezensis isolated from raw honey” (PLoS ONE, 2022).

Key:
[1] = system: Aspergillus, Fusarium, Chrysosporium, Candida albicans, Trichosporium, Alternaria, and Cladosporium; details: isolated from crude extract of B. subtilis
Text: In a study by Pathak and Keharia (2014), iturin isomers and surfactin families were isolated from crude extract of B. subtilis. […] Similar t ...

[2] = system: mouse models
Experimental: The safety of the producer strains and their products need to be evaluated to achieve broader application of iturin A produced by Bacillus species. […] B. velezensis FZB42 type strain, which is closely related to our isolates, was also evaluated by US Environmental Protection Agency (EPA) and considered n ...

Iturin A2
Antifungal spectrum [1]: broad spectrum antifungal activities

Iturin A3/A4/A5
Antifungal spectrum [1]: broad spectrum antifungal activities

iturin
Acute toxicity test ([2]; intragastric, 7-day, 5000 mg/kg, no significant damage to liver, kidney, or small intestines): safe and non-toxic | Subacute toxicity test ([2]; intragastric, 28-day, 2000 mg/kg, no significant damage to liver, kidney, or small intestines): safe and non-toxic

iturin A
Organ-specific toxicity after discontinuation of treatment ([2]; mouse models): reversible | Tissue deposition of iturin A ([2]; mouse models): deposited in liver, lung, and spleen | Toxicity of iturin A in mouse models ([2]; preliminary toxicology study, acute and subacute): can induce hepatotoxicity
